Experiments:
[1] = test system: E. coli thyA folA KO + Pf TM4; assay: microbe, parasite or virus in culture; type: cell-based; conditions: Escherichia coli; host expressing P. falciparum TM4 DHFR-TS; minimal media with ampicillin, 37 degrees Celsius, 6 hours, OD 600 nm
[2] = test system: E. coli thyA folA KO + Pf K1; assay: microbe, parasite or virus in culture; type: cell-based; conditions: Escherichia coli; host expressing P. falciparum K1 DHFR-TS; minimal media with ampicillin, 37 degrees Celsius, 6 hours, OD 600 nm
[3] = test system: E. coli thyA folA KO + Pv wt; assay: microbe, parasite or virus in culture; type: cell-based; conditions: Escherichia coli; host expressing P. vivax wildtype DHFR-TS; 6 hours, OD 600 nm
[4] = test system: E. coli thyA folA KO + Pv mt; assay: microbe, parasite or virus in culture; type: cell-based; conditions: Escherichia coli; host expressing P. vivax sp21 double mutant DHFR-TS; 6 hours, OD 600 nm
[5] = test system: E. coli thyA folA KO + Pm wt; assay: microbe, parasite or virus in culture; type: cell-based; conditions: Escherichia coli; host expressing P. malariae wildtype DHFR-TS; 6 hours, OD 600 nm
[6] = test system: E. coli thyA folA KO + Tb wt; assay: microbe, parasite or virus in culture; type: cell-based; conditions: Escherichia coli, 6 h
[7] = test system: E. coli thyA folA KO + Tg wt; assay: microbe, parasite or virus in culture; type: cell-based; conditions: Escherichia coli; host expressing Toxoplasma gondii wildtype DHFR-TS; 6 hours, OD 600 nm
[8] = test system: E. coli thyA folA KO + Tg mt; assay: microbe, parasite or virus in culture; type: cell-based; conditions: Escherichia coli; host expressing Toxoplasma gondii double mutant DHFR-TS; 6 hours, OD 600 nm
[9] = test system: E. coli thyA folA KO + Lm wt; assay: microbe, parasite or virus in culture; type: cell-based; conditions: Escherichia coli; host expressing Leishmania major DHFR-TS; 6 hours, OD 600 nm
[10] = biological target: DHFR-TS from Plasmodium malariae (wildtype) (Plasmodium malariae, UniProt A0A1D3JLL1); assay: In vitro biochemical enzyme inhibition assay, purified DHFR-TS; conditions: purified P. malariae wildtype DHFR-TS
Sequence of DHFR-TS from Plasmodium malariae (wildtype) (A0A1D3JLL1 entry or part of it): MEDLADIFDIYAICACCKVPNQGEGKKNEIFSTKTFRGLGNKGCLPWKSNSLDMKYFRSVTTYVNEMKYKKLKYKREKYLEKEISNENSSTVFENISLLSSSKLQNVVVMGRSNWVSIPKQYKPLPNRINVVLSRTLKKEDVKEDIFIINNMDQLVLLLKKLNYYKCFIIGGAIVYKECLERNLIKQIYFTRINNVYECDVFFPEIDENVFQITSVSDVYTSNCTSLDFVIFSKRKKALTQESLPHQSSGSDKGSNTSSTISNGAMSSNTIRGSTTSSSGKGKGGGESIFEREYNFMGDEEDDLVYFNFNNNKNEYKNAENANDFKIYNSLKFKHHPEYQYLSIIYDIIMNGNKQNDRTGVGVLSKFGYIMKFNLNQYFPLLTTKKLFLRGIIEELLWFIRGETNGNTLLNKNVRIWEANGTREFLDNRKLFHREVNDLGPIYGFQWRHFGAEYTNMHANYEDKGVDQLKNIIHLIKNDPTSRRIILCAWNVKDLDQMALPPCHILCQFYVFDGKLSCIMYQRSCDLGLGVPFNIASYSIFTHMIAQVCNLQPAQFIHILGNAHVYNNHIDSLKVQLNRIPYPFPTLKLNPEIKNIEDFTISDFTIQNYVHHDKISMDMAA

CCc1nc(N)nc(N)c1-c1ccc(Cl)cc1 [Pyrimethamine]
IC50 [1]: 0.07 ± 0.01 µM
IC50 [2]: 31.93 ± 0.16 µM
IC50 [3]: 3.08 ± 0.33 µM
IC50 [4]: > 100 µM
IC50 [5]: 0.77 ± 0.22 µM
IC50 [6]: > 100 µM
IC50 [7]: > 100 µM
IC50 [8]: > 100 µM
IC50 [9]: > 100 µM
Ki [10]: 0.00054 ± 6e-05 µM

From US9611503B2, “Escherichia coli cell line with thyA knockout and folA knockout” (priority 2011, dated 2017)
